# Biological target: T1, Human Kv7.2/7.3 heteromeric channels (Homo sapiens, UniProt O43525+O43526)
# T1 construct: expressed in transfected cells
# Experiment: Kv7.2/7.3 patch clamp assay
# Assay type: cell-based
# Conditions: 10 µM concentration (N=3)
# Protocol: Human Kv7.2/7.3 heteromeric channels were stably expressed in a HEK293 cell line. Cells were plated onto 13 mm plastic dishes and incubated for 1-3 days in a 5% CO2 incubator for conventional whole-cell patch clamp experiments. Electrophysiological recordings were made using an automated patch clamp platform (QPatch, Sophion Biosciences). Internal (pipette) solution contained (in mM): K-Aspartate (130), KCl (15), MgCl2 (5.5), Na2ATP (5), K2PCr (5), EGTA (20), HEPES (10), pH 7.25 with KOH, was used to study Kv7.2/7.3 currents. Cells were superfused at room temperature with a standard physiological solution containing (mM): NaCl (140), KCl (4), CaCl2 (2), MgCl2 (1), glucose (10), HEPES (10), pH 7.35 with NaOH.
# Patch pipettes were pulled from borosilicate glass and had tip resistances of 2-4 MW when filled with the above solution. Capacitative transients were compensated electronically from the recordings. However, the voltage drop across the series resistance and the liquid junction potential were not compensated. The series resistance was generally less than 10 MG (n=5 cells), with a mean cell capacity of 25±5 pF.
# In some cases, manual patch clamp was carried out using an Axon 200B amplifier (Axon Instruments). The software program pClamp (version 10) from Axon Instruments was used to stimulate and record electrical activity. […]
row,SMILES,effect on Kv7.2/7.3-mediated currents
1,"Cc1ccc(Oc2ncc(N3C(=O)NC(C)(C)C3=O)cn2)c2c1OCC21CC1 [Compound 1, 5,5-dimethyl-3-[2-(7-methylspiro[2H-benzofuran-3,1′-cyclopropane]-4-yl)oxypyrimidin-5-yl]imidazolidine-2,4-dione]",Neither compound was found to have a significant effect
2,"CC[C@@]1(C)NC(=O)N(c2cnc(Oc3ccc(C)c(OC(F)(F)F)c3)nc2)C1=O [Compound 2, (5R)-5-ethyl-5-methyl-3-[2-({4-methyl-3-[(trifluoromethyl)oxy]phenyl}oxy)-5-pyrimidinyl]-2,4-imidazolidinedione]",Neither compound was found to have a significant effect
